Measured values published in patent US5539119A, “Indole derivatives” (priority 1990, dated 1996).
Like-named read-outs stand apart in the source and are kept apart here.

Columns and labels:
δ opioid receptor [1] = molecular target: T1, δ opioid receptor (Cavia porcellus, UniProt A0A286XTF2); experiment: Bonding (binding) assay, guinea pig brain homogenate, DPDPE (hot) / DADLE (cold)
T1 construct: the homogenate of the brain of a guinea pig; from tissue; host or cells: guinea pig brain homogenate
Method: (§1) In the test for bonding, the homogenate of the brain of a guinea pig was diluted with Tris buffer in a ratio calculated to give to the produced solution a protein content of 0.7 mg per prot/tube was used as incorporated in the reaction solution. With regard to ligands for binding assay, 3H-DAGO (μ), DPDPE (δ), and EKC (κ) were used for hot samples and naloxone (μ), DADLE (δ), and naloxone (κ) for cold samples.

Mouse Vas Deferens (MVD) = experiment: Agonist activity in Mouse Vas Deferens (MVD); conditions: read-out: MVD IC50
Method: (§2) The test of the compounds of this invention for agonist and antagonist activities was carried out in according to the method proposed by Takemori et al. (Takemori, A, E. et al.: Eur. J. Pharmacal., 1982, 85, 163) using Guinea Pig Ileal Longitudinal Muscle Mouse Vas Deferens (MVD).

[2] = system: Guinea Pig Ileal Longitudinal Muscle; experiment: Agonist activity in Guinea Pig Ileal Longitudinal Muscle (GPI); conditions: guinea pig ileum
Method: as §2

[3] = system: Guinea Pig Ileal Longitudinal Muscle; experiment: GPI, shift of the compound's effect by naloxone or nor-BNI; design: GPI nor-BN1 Ke: unit not given here
Method: as §2

μ opioid receptor = molecular target: T2, μ opioid receptor (Cavia porcellus, UniProt A0ACM8Q262); experiment: Bonding (binding) assay, guinea pig brain homogenate, 3H-DAGO (hot) / naloxone (cold); conditions: for Ki: guinea pig brain homogenate; for Ki ratio κ/μ: selectivity ratio
T2 construct: 3H-DAGO (DAMGO) radioligand, cold naloxone
Method: as §1

δ opioid receptor [4] = experiment: Bonding (binding) assay, guinea pig brain homogenate, DPDPE (hot) / DADLE (cold); conditions: μ/δ
Method: as §1

κ opioid receptor = molecular target: T3, κ opioid receptor (Cavia porcellus, UniProt P41144); experiment: Bonding (binding) assay, guinea pig brain homogenate, EKC (hot) / naloxone (cold)
T3 construct: the homogenate of the brain of a guinea pig; from tissue; host or cells: guinea pig brain homogenate
Method: as §1

mouse T cells = experiment: Inhibiting proliferation of mouse T cells by Con-A stimulation ([3H]thymidine uptake, spleen cells); assay type: cell-based
Method: Now, the immunosuppressive activity of the compound 19 which is representative of the compounds of the present invention will be shown. Activity in inhibiting proliferation of mouse T cells by Con-A stimulation
A monocellular suspension was prepared by sterilely removing the spleen from a mouse and passing the spleen through a mesh. This suspension was adjusted to a concentration of 5×10^6 cells/ml and dispensed by the unit of 100 μl in all the individual wells of a 96-well plate. […] Eight hours before completion of the incubation, [^3 H]thymidine was added to the contents of the wells in a fixed ratio of 2 μCi/10 μl/well. Eight hours after this addition, the cells in the wells were collected on filter papers with the aid of a cell harvester. The cells on the filter papers were dried, then combined with a toluene type scintillator, and counted for the radioactivity of the [^3 H] thymidine occluded in the cells by means of a scintillation counter.
The ratio of suppression of T cell proliferation was calculated in accordance with the following formula:
Rate of suppression=(Radioactivity in the absence of compound-Radioactivityafter addition of compound)/(Radioactivity in the absence of compound-Radioactivity in the absence of ConA)

δ-receptor = molecular target: T4, δ-receptor (Mus musculus, UniProt P32300); experiment: Antagonism to DPDPE in Mouse Vas Deferens (MVD)
T4 construct: from tissue; host or cells: mouse vas deferens

[5] = guinea pig brain homogenate, read-out: Bonding assay Ki value δ
[6] = Mus musculus, T-cell, ConA-stimulated mouse T cells, read-out: IC50, activity in inhibiting T cell hyperplasia (Table 3)
[7] = MVD Antagonism to DPDPE, pA2, (20 nM)
[8] = MVD Antagonism to DPDPE, pA2, (50 nM)
[9] = MVD Antagonism to DPDPE at 100 nM, pA2, at 100 nM
[10] = Mus musculus, T-cell, 48 h, read-out: Ratio of suppression of T cell proliferation

T3 sequence (P41144 whole entry): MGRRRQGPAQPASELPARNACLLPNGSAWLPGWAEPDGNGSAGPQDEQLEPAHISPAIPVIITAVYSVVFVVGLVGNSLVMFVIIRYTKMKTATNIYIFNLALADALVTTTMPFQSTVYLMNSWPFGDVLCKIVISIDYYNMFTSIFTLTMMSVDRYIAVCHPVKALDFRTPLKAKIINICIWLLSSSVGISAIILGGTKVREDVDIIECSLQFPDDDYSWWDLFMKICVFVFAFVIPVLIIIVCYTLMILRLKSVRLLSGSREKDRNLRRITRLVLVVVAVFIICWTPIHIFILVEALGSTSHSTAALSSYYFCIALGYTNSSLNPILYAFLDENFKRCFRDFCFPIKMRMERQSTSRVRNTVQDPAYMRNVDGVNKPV
T1 sequence (A0A286XTF2 1-366): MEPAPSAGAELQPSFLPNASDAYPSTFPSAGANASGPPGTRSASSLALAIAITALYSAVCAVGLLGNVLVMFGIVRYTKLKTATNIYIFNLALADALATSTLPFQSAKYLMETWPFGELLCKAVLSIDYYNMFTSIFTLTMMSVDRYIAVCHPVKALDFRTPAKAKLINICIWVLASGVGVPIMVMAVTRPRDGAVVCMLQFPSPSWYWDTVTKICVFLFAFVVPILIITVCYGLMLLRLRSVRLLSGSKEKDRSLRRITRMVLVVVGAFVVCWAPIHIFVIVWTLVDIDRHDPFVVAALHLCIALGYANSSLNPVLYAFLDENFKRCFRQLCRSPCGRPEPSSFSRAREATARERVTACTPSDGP
T4 sequence (P32300 whole entry): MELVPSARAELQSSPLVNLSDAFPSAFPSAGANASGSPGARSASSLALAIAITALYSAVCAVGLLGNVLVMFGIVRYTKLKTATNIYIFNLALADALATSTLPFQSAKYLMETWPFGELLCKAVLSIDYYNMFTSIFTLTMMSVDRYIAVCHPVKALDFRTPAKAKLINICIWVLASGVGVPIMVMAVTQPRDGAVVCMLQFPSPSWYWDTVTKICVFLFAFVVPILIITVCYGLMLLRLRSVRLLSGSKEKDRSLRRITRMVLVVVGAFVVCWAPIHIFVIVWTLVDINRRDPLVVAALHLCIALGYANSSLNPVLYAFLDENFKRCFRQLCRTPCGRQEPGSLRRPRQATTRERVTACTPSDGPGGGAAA
T2 sequence (A0ACM8Q262 1-400): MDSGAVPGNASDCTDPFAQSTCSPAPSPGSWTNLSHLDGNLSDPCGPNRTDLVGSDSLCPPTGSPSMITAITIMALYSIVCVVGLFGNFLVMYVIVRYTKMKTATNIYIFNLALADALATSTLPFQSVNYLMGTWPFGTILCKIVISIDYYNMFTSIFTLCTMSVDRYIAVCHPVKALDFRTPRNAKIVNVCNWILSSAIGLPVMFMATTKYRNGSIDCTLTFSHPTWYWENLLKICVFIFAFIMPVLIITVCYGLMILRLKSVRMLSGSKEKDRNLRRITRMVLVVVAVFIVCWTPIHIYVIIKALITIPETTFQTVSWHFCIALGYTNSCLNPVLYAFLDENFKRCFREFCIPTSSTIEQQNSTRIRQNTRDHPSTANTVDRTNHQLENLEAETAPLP

Compound | IC50 [2] [nM] | GPI naloxone DR [3] | GPI nor-BN1 DR [3] | GPI nor-BN1 Ke [3] | GPI nor-BN1 pA2 [3] | Ki (μ opioid receptor) [nM] | Ki ratio κ/μ (μ opioid receptor) | Ki (δ opioid receptor [1]) [nM] | Ki ratio μ/δ (δ opioid receptor [4]) | Ki ratio μ/δ (δ opioid receptor [4]; selectivity ratio) | Ki (κ opioid receptor) [nM] | IC50 (mouse T cells; [6]) [µg/mL] | MVD Antagonism to DPDPE, DR (δ-receptor; (50 nM)) | Kb (δ-receptor; [7]) [nM] | Kb (δ-receptor; [8]) [nM] | also measured
CN1CC[C@]2(c3cccc(O)c3)Cc3[nH]c4ccc(Br)cc4c3C[C@H]2C1 (relative stereo) [Compound 10, 2-Methyl-4aα-(3-hydroxyphenyl)-9-bromo-1,2,3,4,4a,5,11,11aβ-octahydro-6H-indolo[2,3-g]isoquinoline] | 14300 | 0.92 | 1.31 | 64.5 | 7.19 | – | – | – | – | – | – | – | – | – | – | Ki (δ opioid receptor [1]; [5]): 1390 nM; IC50 (Mouse Vas Deferens (MVD)): 21900 nM
Cn1c2c(c3ccccc31)C[C@H]1CN(CC3CC3)CC[C@]1(c1cccc(O)c1)C2 (relative stereo) [Compound 25, 2-Cyclopropylmethyl-4aα-(3-hydroxyphenyl)-1,2,3,4,4a,5,11,11aβ-octahydro-6-methyl-indolo[2,3-g]isoquinoline] | 14500 | 0.55 | 0.77 | – | – | 1530 | 0.09 | 2.77 | 52.0 | 552 | 144 | 3 | – | – | – | –
Oc1cccc([C@]23CCN(CC4CC4)C[C@@H]2Cc2c([nH]c4c(F)cccc24)C3)c1 (relative stereo) [Compound 29, 2-Cyclopropylmethyl-4aα-(3-hydroxyphenyl)-7-fluoro-1,2,3,4,4a,5,11,11aβ-octahydro-6H-indolo[2,3-g]isoquinoline] | 6640 | 2.50 | 2.06 | 18.9 | 7.72 | 1180 | 0.31 | 1.91 | 194 | 618 | 370 | 0.9 | 34.1 | 3.89 | 1.51 | MVD Antagonism to DPDPE, DR (δ-receptor; (20 nM)): 6.22
C=CCN1CC[C@]2(c3cccc(O)c3)Cc3[nH]c4ccccc4c3C[C@H]2C1 (relative stereo) [Compound 31, 2-Allyl-4aα-(3-hydroxyphenyl)-1,2,3,4,4a,5,11,11aβ-octahydro-6H-indolo[2,3-g]isoquinoline] | 20500 | 0.93 | 0.98 | – | – | 27000 | 0.09 | 2.97 | 754 | > 9090 | 2240 | 2.6 | – | – | – | Kb (δ-receptor; [9]): 12.9 nM; MVD Antagonism to DPDPE at 100 nM, DR (δ-receptor; at 100 nM): 4.84
Oc1cccc([C@]23CCN(CC4CC4)C[C@@H]2Cc2c([nH]c4ccc(F)cc24)C3)c1 (relative stereo) [Compound 37, 2-Cyclopropylmethyl-4aα-(3-hydroxyphenyl)-9-fluoro-1,2,3,4,4a,5,11,11aβ-octahydro-6H-indolo[2,3-g]isoquinoline] | 10500 | 1.19 | 1.26 | – | – | 1550 | 0.22 | 6.94 | 49.3 | 223 | 342 | 1.9 | – | – | – | Kb (δ-receptor; [9]): 6.31 nM; MVD Antagonism to DPDPE at 100 nM, DR (δ-receptor; at 100 nM): 8.93
Oc1cccc([C@]23CCN(CC4CC4)C[C@@H]2Cc2c([nH]c4c(Cl)cccc24)C3)c1 (relative stereo) [Compound 40, 2-Cyclopropylmethyl-4aα-(3-hydroxyphenyl)-7-chloro-1,2,3,4,4a,5,11,11aβ-octahydro-6H-indolo[2,3-g]isoquinoline] | 11700 | 2.17 | 2.05 | 19.0 | 7.72 | 1650 | 0.57 | 8.31 | 113 | 199 | 936 | 2.6 | 18.5 | 10 | 2.88 | MVD Antagonism to DPDPE, DR (δ-receptor; (20 nM)): 3.02
CN1CC[C@]2(c3cccc(O)c3)Cc3[nH]c4ccccc4c3C[C@@]2(O)C1 (relative stereo) [Compound 54, 2-Methyl-4aα-(3-hydroxyphenyl)-11aβ-hydroxy-1,2,3,4,4a,5,11,11a-octahydro-6H-indolo[2,3-q]isoquinoline] | 5960 | 1.30 | 3.30 | 8.70 | 8.06 | – | – | 2.75 | – | – | 662 | – | 22.4 | 5.75 | 1.7 | IC50 (Mouse Vas Deferens (MVD)): 10200 nM
Oc1cccc([C@]23CCN(CC4CC4)C[C@]2(O)Cc2c([nH]c4ccccc24)C3)c1 (relative stereo) [Compound 56] | – | – | – | – | – | 723 | 2.14 | 1.71 | 906 | 423 | 1550 | 14 | – | – | – | –
Oc1cccc([C@]23CCN(CC4CC4)C[C@@H]2Cc2c([nH]c4ccccc24)C3)c1 (single isomer, unassigned) [Compound 47, (+)-2-Cyclopropylmethyl-4aα-(3-hydroxyphenyl)-1,2,3,4,4a,5,11,11aβ-octahydro-6H-indolo[2,3-g]isoquinoline] | 64500 | 1.06 | 1.29 | – | – | 1170 | – | 0.37 | – | – | 388 | 3.8 | 30.5 | 5.75 | 1.7 | MVD Antagonism to DPDPE, DR (δ-receptor; (20 nM)): 4.44
Oc1cccc([C@]23CCN(CC4CC4)C[C@@H]2Cc2c([nH]c4ccccc24)C3)c1 (single isomer, unassigned) [Compound 52, (-)-2-Cyclopropylmethyl-4aα-(3-hydroxyphenyl)-1,2,3,4,4a,5,11,11aβ-octahydro-6H-indolo[2,3-g]isoquinoline] | 16400 | 1.06 | 1.03 | – | – | 81100 | – | – | – | – | 2280 | – | – | – | – | Ki (δ opioid receptor [1]; [5]): 135 nM; Kb (δ-receptor; at 100 nM): 158 nM; MVD Antagonism to DPDPE at 100 nM, Ke (δ-receptor; at 100 nM): 158; IC50, activity in inhibiting T cell hyperplasia (Table 3) (mouse T cells; ConA-stimulated mouse T cells): 3.5 µg/mL
Oc1ccc2c3c1O[C@H]1c4[nH]c5ccccc5c4C[C@@]4(O)[C@@H](C2)N(CC2CC2)CC[C@]314 [NTI, nartol indole, reference compound] | – | – | – | – | – | – | – | – | – | 100 | – | – | – | – | – | inhibition at 0.1 µg/mL (mouse T cells; [10]): 0%; inhibition at 0.5 µg/mL (mouse T cells; [10]): 0%; inhibition at 0.75 µg/mL (mouse T cells; [10]): 0%; inhibition at 1 µg/mL (mouse T cells; [10]): 0%; inhibition at 2.5 µg/mL (mouse T cells; [10]): 0%; inhibition at 5 µg/mL (mouse T cells; [10]): 15%; inhibition at 7.5 µg/mL (mouse T cells; [10]): 35%; inhibition at 10 µg/mL (mouse T cells; [10]): 62%; inhibition at 12.5 µg/mL (mouse T cells; [10]): 85%; inhibition at 15 µg/mL (mouse T cells; [10]): 98%; inhibition at 17.5 µg/mL (mouse T cells; [10]): 100%; inhibition at 20 µg/mL (mouse T cells; [10]): 100%; IC50 (mouse T cells; Mus musculus, T-cell, read-out: IC50 value, immunosuppression (text to Table 2)): 8.6 µg/mL
